For 6 compounds, Activity and zone of inhibition results are on record in ChEMBL document CHEMBL3045169, “In vitro evaluation of the antibacterial and antifungal activity of some new pyrazolyl-quinazolin-4(3H)-one derivatives” (2012).

Common to all, as to type: functional
The subject of assay [1] is Aspergillus niger. The assay can be described thus: Antifungal activity against Aspergillus niger ATCC 6275 by agar cup-plate method relative to fluconazole. Details: concentration or dose not given beside the values.
Assay [2] relates to Aspergillus niger. Nature of the assay: Antifungal activity against Aspergillus niger ATCC 6275 at 10 ug/ml by agar cup-plate method. Particulars: read-out: IZ.
The test system of assay [3] is Aspergillus niger. The assay can be described thus: Antifungal activity against Aspergillus niger ATCC 6275 at 20 ug/ml by agar cup-plate method. The settings on record: read-out: IZ.
Assay [4] has as its system Candida albicans. Nature of the assay: Antifungal activity against Candida albicans ATCC 10231 by agar cup-plate method relative to fluconazole. Details: concentration or dose not given beside the values.
The test system of assay [5] is Candida albicans. Nature of the assay: Antifungal activity against Candida albicans ATCC 10231 at 10 ug/ml by agar cup-plate method. The settings on record: read-out: IZ.
The test system of assay [6] is Candida albicans. The assay can be described thus: Antifungal activity against Candida albicans ATCC 10231 at 20 ug/ml by agar cup-plate method. The settings on record: read-out: IZ.
The subject of assay [7] is Pseudomonas aeruginosa. The assay can be described thus: Antibacterial activity against Pseudomonas aeruginosa ATCC 9027 by agar cup-plate method relative to penicillin-G. Details: concentration or dose not given beside the values.
Assay [8] has as its system Pseudomonas aeruginosa. Nature of the assay: Antibacterial activity against Pseudomonas aeruginosa ATCC 9027 at 50 ug/ml by agar cup-plate method. The settings on record: read-out: IZ.
The test system of assay [9] is Pseudomonas aeruginosa. Nature of the assay: Antibacterial activity against Pseudomonas aeruginosa ATCC 9027 at 100 ug/ml by agar cup-plate method. The settings on record: read-out: IZ.
In assay [10] the test system is Escherichia coli. Nature of the assay: Antibacterial activity against Escherichia coli ATCC 25922 by agar cup-plate method relative to penicillin-G. Details: concentration or dose not given beside the values.
For assay [11], the system named is Escherichia coli. The assay can be described thus: Antibacterial activity against Escherichia coli ATCC 25922 at 50 ug/ml by agar cup-plate method. The settings on record: read-out: IZ.
Assay [12] relates to Escherichia coli. Nature of the assay: Antibacterial activity against Escherichia coli ATCC 25922 at 100 ug/ml by agar cup-plate method. Particulars: read-out: IZ.
Assay [13] has as its system Bacillus subtilis. The assay can be described thus: Antibacterial activity against Bacillus subtilis ATCC 6633 by agar cup plate method relative to penicillin-G. Details: concentration or dose not given beside the values.
The subject of assay [14] is Bacillus subtilis. The assay can be described thus: Antibacterial activity against Bacillus subtilis ATCC 6633 at 50 ug/ml by agar cup plate method. The settings on record: read-out: IZ.
Assay [15] concerns Bacillus subtilis. The assay can be described thus: Antibacterial activity against Bacillus subtilis ATCC 6633 at 100 ug/ml by agar cup plate method. Particulars: read-out: IZ.
Assay [16] deals with Staphylococcus aureus. Nature of the assay: Antibacterial activity against Staphylococcus aureus ATCC 9144 by agar cup-plate method relative to penicillin-G. Details: concentration or dose not given beside the values.
The subject of assay [17] is Staphylococcus aureus. Nature of the assay: Antibacterial activity against Staphylococcus aureus ATCC 9144 at 50 ug/ml by agar cup-plate method. Particulars: read-out: IZ.
For assay [18], the system named is Staphylococcus aureus. The assay can be described thus: Antibacterial activity against Staphylococcus aureus ATCC 9144 at 100 ug/ml by agar cup-plate method. The settings on record: read-out: IZ.

`O=c1c2cc(I)ccc2nc(Cc2ccccc2Nc2ccccc2)n1NC1=NNC(c2ccccc2O)C1` (stereo not drawn): the Activity with Aspergillus niger [1] was found to be 38.11%; in the assay on Candida albicans [4], 49.95%; in the assay on Pseudomonas aeruginosa [7], 39.56%; in the assay on Escherichia coli [10], 34.11%; with Bacillus subtilis [13] it was 41.49%; in the assay on Staphylococcus aureus [16], 38.15%. The zone of inhibition at 10 µg/mL in the assay on Aspergillus niger [2] was 8 mm; with Candida albicans [5], 9 mm. The values for the zone of inhibition at 20 µg/mL in the assay with Aspergillus niger [3] and with Candida albicans [6] were 10 mm and 12 mm, respectively. Moreover, the zone of inhibition at 50 µg/mL was found to be 8 mm in the assay with Pseudomonas aeruginosa [8], 7 mm with Escherichia coli [11], 9 mm with Bacillus subtilis [14] and 8 mm in the assay with Staphylococcus aureus [17]. Also, the zone of inhibition at 100 µg/mL is 10 mm in the assay with Pseudomonas aeruginosa [9], 9 mm in the assay on Escherichia coli [12], 11 mm with Bacillus subtilis [15] and 10 mm with Staphylococcus aureus [18].

For `O=c1c2cc(I)ccc2nc(Cc2ccccc2Nc2ccccc2)n1NC1=NNC(c2ccccc2[N+](=O)[O-])C1` (stereo not drawn), the Activity in the assay with Aspergillus niger [1] is 58.12%; in the assay with Candida albicans [4], 68.81%; in the assay with Pseudomonas aeruginosa [7], 55.43%; in the assay with Escherichia coli [10] it was 47.67%; with Bacillus subtilis [13] it was 63.61%; in the assay on Staphylococcus aureus [16] it was 55.29%. Besides, the zone of inhibition at 10 µg/mL in the assay with Aspergillus niger [2] and in the assay with Candida albicans [5] was 15 mm throughout. Also, the zone of inhibition at 20 µg/mL with Aspergillus niger [3] was 17 mm; with Candida albicans [6], 18 mm. The zone of inhibition at 50 µg/mL amounted to 12 mm with Pseudomonas aeruginosa [8], 11 mm in the assay on Escherichia coli [11], 13 mm in the assay with Bacillus subtilis [14] and 13 mm in the assay with Staphylococcus aureus [17]. In addition, the zone of inhibition at 100 µg/mL was 15 mm with Pseudomonas aeruginosa [9], 14 mm with Escherichia coli [12], 17 mm with Bacillus subtilis [15] and 16 mm in the assay on Staphylococcus aureus [18].

As for `O=c1c2cc(I)ccc2nc(Cc2ccccc2Nc2ccccc2)n1NC1=NNC(c2ccc(O)cc2)C1` (stereo not drawn), the Activity in the assay with Aspergillus niger [1] was determined as 51.18%; in the assay with Candida albicans [4], 56.01%; in the assay with Pseudomonas aeruginosa [7], 37.4%; in the assay on Escherichia coli [10], 32.33%; in the assay with Bacillus subtilis [13], 41.49%; in the assay on Staphylococcus aureus [16], 38.15%. For the same compound, the zone of inhibition at 10 µg/mL was 11 mm with Aspergillus niger [2] and 13 mm with Candida albicans [5]. Besides, the zone of inhibition at 20 µg/mL in the assay on Aspergillus niger [3] was 14 mm; with Candida albicans [6] it was 15 mm. Further, the zone of inhibition at 50 µg/mL in the assay on Pseudomonas aeruginosa [8] stood at 7 mm; in the assay with Escherichia coli [11] it was 6 mm; with Bacillus subtilis [14], 9 mm; in the assay on Staphylococcus aureus [17] it was 8 mm. Further, the zone of inhibition at 100 µg/mL in the assay with Pseudomonas aeruginosa [9] came to 9 mm; in the assay with Escherichia coli [12], 8 mm; in the assay on Bacillus subtilis [15], 11 mm; in the assay with Staphylococcus aureus [18], 10 mm.

As to `O=c1c2cc(I)ccc2nc(Cc2ccccc2Nc2ccccc2)n1NC1=NNC(c2ccc([N+](=O)[O-])cc2)C1` (stereo not drawn), the Activity with Aspergillus niger [1] is 51.52%; in the assay with Candida albicans [4], 59.53%; in the assay with Pseudomonas aeruginosa [7], 61.15%; in the assay with Escherichia coli [10], 54.75%; in the assay with Bacillus subtilis [13], 58.83%; in the assay on Staphylococcus aureus [16], 55.57%. The figures for the zone of inhibition at 10 µg/mL in the assay on Aspergillus niger [2] and with Candida albicans [5] were 13 mm and 14 mm, respectively. The zone of inhibition at 20 µg/mL came out at 15 mm in the assay on Aspergillus niger [3] and 16 mm in the assay on Candida albicans [6]. Moreover, the zone of inhibition at 50 µg/mL stood at 14 mm in the assay with Pseudomonas aeruginosa [8], 12 mm in the assay with Escherichia coli [11], 13 mm in the assay with Bacillus subtilis [14] and 11 mm in the assay on Staphylococcus aureus [17]. Further, the zone of inhibition at 100 µg/mL with Pseudomonas aeruginosa [9] is 17 mm; in the assay with Escherichia coli [12], 16 mm; with Bacillus subtilis [15], 16 mm; in the assay with Staphylococcus aureus [18] it was 15 mm.

On to `O=c1c2cc(I)ccc2nc(Cc2ccccc2Nc2ccccc2)n1NC1=NNC(c2ccccc2Cl)C1` (stereo not drawn), for which the Activity in the assay with Aspergillus niger [1] was found to be 66.9%; in the assay on Candida albicans [4] it was 76.62%; in the assay with Pseudomonas aeruginosa [7], 48.61%; with Escherichia coli [10], 44.45%; in the assay on Bacillus subtilis [13], 45.27%; in the assay on Staphylococcus aureus [16], 44.39%. For the same compound, the zone of inhibition at 10 µg/mL came out at 16 mm in the assay with Aspergillus niger [2] and 17 mm in the assay on Candida albicans [5]. For the same compound, the zone of inhibition at 20 µg/mL stood at 19 mm with Aspergillus niger [3] and 20 mm with Candida albicans [6]. In addition, the zone of inhibition at 50 µg/mL in the assay on Pseudomonas aeruginosa [8], with Escherichia coli [11], in the assay with Bacillus subtilis [14] and in the assay on Staphylococcus aureus [17] was 0 mm each time. Also, the zone of inhibition at 100 µg/mL in the assay with Pseudomonas aeruginosa [9] worked out at 7 mm; in the assay on Escherichia coli [12], 7 mm; in the assay on Bacillus subtilis [15], 7 mm; in the assay on Staphylococcus aureus [18] it was 6 mm.

On to `COc1ccc(C2CC(Nn3c(Cc4ccccc4Nc4ccccc4)nc4ccc(I)cc4c3=O)=NN2)cc1` (stereo not drawn), for which the Activity in the assay with Aspergillus niger [1] was 45.04%; in the assay on Candida albicans [4], 49.07%; in the assay on Pseudomonas aeruginosa [7], 68.97%; in the assay with Escherichia coli [10], 57.71%; in the assay with Bacillus subtilis [13], 41.49%; in the assay with Staphylococcus aureus [16], 38.15%. Also, the zone of inhibition at 10 µg/mL with Aspergillus niger [2] and with Candida albicans [5] was 0 mm throughout. Also, the zone of inhibition at 20 µg/mL with Aspergillus niger [3] and in the assay with Candida albicans [6] was 7 mm in each case. Further, the zone of inhibition at 50 µg/mL in the assay with Pseudomonas aeruginosa [8] was determined as 15 mm; with Escherichia coli [11], 15 mm; in the assay with Bacillus subtilis [14], 9 mm; in the assay on Staphylococcus aureus [17], 8 mm. The zone of inhibition at 100 µg/mL in the assay with Pseudomonas aeruginosa [9] worked out at 19 mm; with Escherichia coli [12], 18 mm; in the assay with Bacillus subtilis [15] it was 11 mm; in the assay on Staphylococcus aureus [18] it was 10 mm.
